Assays:
female C57BL6 mice = experiment: Elevated plus maze (with or without restraint stress); assay type: in vivo, mouse
Excerpt: Animal subjects. Prepubertal and pubertal female C57BL6 mice (3½-6 weeks old, +/+ and δ^−/−1) were housed in a reverse light:dark cycle (12:12). Both sets of mice were originally supplied by G. Homanics (Univ. of Pittsburgh), and were bred on site, with +/+ mice supplemented from Jackson Laboratories (Bar Harbor, Me.). Initially, age-matched+/+littermates of the δ^−/−were used as controls, but because they were indistinguishable from C57BL6, data from both groups were pooled. Genotyping of the tails verified that mice were homozygous δ^−/−. Some animals (+/+ or δ^−/−) were injected with finasteride (1,(5α)-androstene-4-aza-3-one-N-tert-butyl-17β-carboxaminde, Steraloids, 50 mg kg^, −1 intraperitoneally, 3 days) to block THP synthesis^2 or oil vehicle on a daily basis 1-1.5 h before dark onset, when THP levels increase, and tested 30 min. later. The onset of puberty was determined by vaginal opening, and pubertal mice tested on the day of first metestrus, identified by vaginal morphology and verification of first estrus the previous day. Mice with vaginal smears representative of diestrus were excluded from the study. Individual stages of puberty were not distinguished, and pre-pubertal mice were used before any visible signs of pubertal development, assessed by development of the peri-vaginal area. In some cases, pubertal mice were injected with replacement THP (3α-OH-5β-pregnan-20-one, 10 mg kg^−1, intraperitoneally in oil) for three days before testing. Procedures were in accordance with the SUNY Downstate Institutional Animal Care and Use Committee.
Restraint stress. In order to test the effect stress-induced release of THP^6,46,47 on anxiety, mice were restrained in a clear Plexiglas tube-type holder (Harvard Apparatus) for 45 min. and tested 20 min. later on the elevated plus maze (see Supplementary Methods). Open arm time was evaluated for 5 min. on the elevated plus maze. A decrease in open arm time reflects an increase in anxiety^18. In all cases, the results from each mouse tested after restraint was expressed relative to the averaged results from the sham controls, which were identical to the stressed animals (age, genotype, sex, drug-injected), except that they were not subjected to restraint stress.
Elevated plus maze. Testing rodent behavior on the elevated plus maze is an established animal model of anxiety^31. The plus maze consists of four 8×35 cm arms at 90° angles, elevated 57 cm above the floor. Two arms are enclosed by 33 cm walls, and two arms have no walls (“open arms”). […] Each animal was initially acclimated to the room for 30 min-1 h before being placed in the center of the maze, and exploratory activity recorded for 5 min. […]

α1β2γ2 receptors = molecular target: T1, α1β2γ2 receptors (Rattus norvegicus, UniProt P62813+P63138); experiment: Whole cell patch clamp of GABA-gated current, recombinant receptors in HEK-293 cells; assay type: cell-based; settings: 30 nM THP
T1 construct: expressed in transfected cells; host or cells: HEK-293
T1 sequence (P62813 28-455): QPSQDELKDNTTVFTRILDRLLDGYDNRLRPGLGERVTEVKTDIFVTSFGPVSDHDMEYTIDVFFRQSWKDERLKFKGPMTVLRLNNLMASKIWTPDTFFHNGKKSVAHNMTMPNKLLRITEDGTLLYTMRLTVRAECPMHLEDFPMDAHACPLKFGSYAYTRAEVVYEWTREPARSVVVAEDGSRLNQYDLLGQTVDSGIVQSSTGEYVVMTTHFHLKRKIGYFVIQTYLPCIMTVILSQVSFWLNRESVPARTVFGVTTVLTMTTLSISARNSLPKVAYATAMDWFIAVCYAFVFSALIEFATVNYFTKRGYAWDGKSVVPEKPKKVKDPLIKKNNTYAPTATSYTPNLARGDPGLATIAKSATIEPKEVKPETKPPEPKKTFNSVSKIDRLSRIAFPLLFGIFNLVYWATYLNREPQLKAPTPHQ
T1 sequence (P63138 25-474 limits assumed): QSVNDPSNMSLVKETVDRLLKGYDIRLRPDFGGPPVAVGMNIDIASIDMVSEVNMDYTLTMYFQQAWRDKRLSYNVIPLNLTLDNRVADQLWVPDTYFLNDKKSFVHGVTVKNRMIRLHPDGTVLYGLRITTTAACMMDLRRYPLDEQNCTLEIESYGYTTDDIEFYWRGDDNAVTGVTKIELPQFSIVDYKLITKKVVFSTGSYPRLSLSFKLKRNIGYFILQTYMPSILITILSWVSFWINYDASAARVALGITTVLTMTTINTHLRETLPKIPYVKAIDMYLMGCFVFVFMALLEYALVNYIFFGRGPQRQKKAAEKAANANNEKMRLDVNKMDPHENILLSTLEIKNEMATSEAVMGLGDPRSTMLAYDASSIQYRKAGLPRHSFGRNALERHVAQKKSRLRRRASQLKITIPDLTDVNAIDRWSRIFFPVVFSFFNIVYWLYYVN
T1 sequence (P18508 39-466 partner): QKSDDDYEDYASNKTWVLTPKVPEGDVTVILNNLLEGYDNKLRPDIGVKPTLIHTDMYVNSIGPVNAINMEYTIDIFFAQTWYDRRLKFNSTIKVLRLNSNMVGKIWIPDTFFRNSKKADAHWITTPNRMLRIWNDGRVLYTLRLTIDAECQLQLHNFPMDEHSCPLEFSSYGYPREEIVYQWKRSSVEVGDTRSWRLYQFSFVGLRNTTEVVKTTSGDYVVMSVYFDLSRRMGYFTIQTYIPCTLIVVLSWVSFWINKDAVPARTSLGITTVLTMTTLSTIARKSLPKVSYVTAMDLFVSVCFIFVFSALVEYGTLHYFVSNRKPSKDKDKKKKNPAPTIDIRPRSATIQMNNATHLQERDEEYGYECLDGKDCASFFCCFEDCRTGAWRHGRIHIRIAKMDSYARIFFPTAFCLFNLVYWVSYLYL
Excerpt: Recombinant receptors: Transfection—Plasmids obtained from S. Vicini (rat α1, α5, β2, β3 and γ2), P. Whiting (human α4 and δ) and N. L. Harrison (mouse α4) were propagated in E coli DH5α and prepared using Qiagen Maxi- or Midi-prep kits. (Rat, mouse and human α1, β2, β3 and γ2 subunits are identical or nearly identical.) All receptors were transfected at a 1:1:1 ratio, except α1β2γ2 (1:1:5)^12, α4βδ (5:1:5)^13 and α4β2γ2 (5:1:1). HEK-293 cells were maintained in medium (DMEM:Ham's F-12 1:1) supplemented with 10% fetal calf serum at 37° C. in a humid 5% CO2 atmosphere.
The pipet solution contained (in mM): N-methyl-D-glucamine chloride 120, Cs4BAPTA 5 (Calbiochem), Mg-ATP 5, and an ATP regeneration system (20 mM Tris phosphocreatine and creatine kinase). Internal [Cl^−] or the holding potential were varied, using gluconate as the anion, to alter the direction of Cl^− flow, corrected for the junction potential.
HEK-293 cells were maintained in medium (DMEM:Ham's F-12 1:1) supplemented with 10% fetal calf serum at 37° C. in a humid 5% CO2 atmosphere.

## CC(=O)[C@H]1CC[C@H]2[C@@H]3CC[C@H]4C[C@H](O)CC[C@]4(C)[C@H]3CC[C@]12C [THP, 3α-OH-5α[β]-pregnan-20-one]
Female C57BL6 mice; 10 mg kg−1 intraperitoneally, acute, after onset of puberty
  decrease of open arm time: 35±8%
Female C57BL6 mice; 10 mg kg−1 intraperitoneally, after onset of puberty
  locomotor activity: without changing locomotor activity
Female C57BL6 mice; replacement THP 10 mg kg−1 i.p. for three days at puberty
  anxiety response to stress after steroid replacement: did not exhibit an anxiety response to stress
α1β2γ2 receptors
  effect on outward current: either increased or had no effect

— patent US20090269795A1, “Mutant alpha4betadelta GABAA receptor and methods of treating anxiety or irritability” (priority 2007, published 2009)
